Results taken from US20220363686A1 (AiCuris GmbH & Co. KG, priority 2018, published 2022).
Like-named read-outs stand apart in the source and are kept apart here.

Experiments:
HBV = assay: Determination of HBV DNA from the supernatants of HepAD38 cells (anti-HBV activity); type: cell-based, hepatitis B virus; details: Hepatitis B virus, HePAD38, 144 h, HBV DNA in HepAD38 supernatant, day 6, qPCR, read-out: Cell Activity
Summary of the method: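 EC50 derived by non-linear regression of relative HBV DNA copy numbers, measured by qPCR (plasmid standards) in day-6 filtered supernatants. Before this, HepAD38 cells were exposed to serial half-log compound dilutions without tetracycline, releasing viral expression; cultures kept at 37 °C, 5% CO2.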

[1] = target: HBV core protein (C-terminal truncated core protein containing 149 amino acids of the N-terminal assembly domain) (UniProt P03146); assay: Biochemical capsid assembly assay (fluorescence quenching); parameters: rows headed: Assembly Activity; other: BODIPY-FL labelled core protein, assembly started with NaCl, read after 6 min; details: read-out: Assembly Activity; BODIPY-FL labelled core protein, assembly started with NaCl, read after 6 min
Summary of the method: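 N-terminal assembly domain (residues 1–149) plus C-terminal Cys150, E. coli-expressed, BODIPY-FL-maleimide labelled, used at 1.0–2.0 μM in 50 mM HEPES pH 7.5 with 0.5% DMSO. Assembly started with NaCl ([…]); fluorescence quenching (ex 477/em 525 nm) read after 6 min. 8-point compound series; EC50 by non-linear regression.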

[2] = Cell viability assay (AlamarBlue); details: human, HepAD38 cells
Description: Using the AlamarBlue viability assay cytotoxicity was evaluated in HepAD38 cells in the presence of 0.3 μg/ml tetracycline, which blocks the expression of the HBV genome. Assay condition and plate layout were in analogy to the anti-HBV assay, however other controls were used. On each assay plate six wells containing untreated HepAD38 cells were used as the 100% viability control, and six wells filled with assay medium only were used as 0% viability control. In addition, a geometric concentration series of cycloheximide starting at 60 μM final assay concentration was used as positive control in each experiment. After six days incubation period Alamar Blue Presto cell viability reagent (ThermoFisher, Dreieich) was added in 1/11 dilution to each well of the assay plate. After an incubation for 30 to 45 min at 37° C. the fluorescence signal, which is proportional to the number of living cells, was read using a Tecan Spectrafluor Plus plate reader with an excitation filter 550 nm and emission filter 595 nm, respectively. Data were normalized into percentages of the untreated control (100% viability) and assay medium (0% viability) before CC50 values were calculated using non-linear regression and the GraphPad Prism 6.0 (GraphPad Software, La Jolla, USA). Mean EC50 and CC50 values were used to calculate the selectivity index (SI=CC50/EC50) for each test compound.

Sequence of HBV core protein (C-terminal truncated core protein containing 149 amino acids of the N-terminal assembly domain) (P03146 whole entry, the tested form may be a part): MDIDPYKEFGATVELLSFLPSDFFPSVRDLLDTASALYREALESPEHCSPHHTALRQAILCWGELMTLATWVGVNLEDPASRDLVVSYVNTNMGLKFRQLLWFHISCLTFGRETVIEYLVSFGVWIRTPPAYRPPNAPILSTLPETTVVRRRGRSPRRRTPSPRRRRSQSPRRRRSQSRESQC

| SMILES | EC50 (HBV) [µM] | IC50 [1] [µM] | CC50 at 6 days [2] [µM] | EC50 (HBV; printed as number instead of class symbol) [µM] |
| --- | --- | --- | --- | --- |
| O=C(c1cc2ccccc2[nH]1)N1CCn2ncc(C(=O)N3CC4C(C3)C4(F)F)c2C1 (stereo not drawn) [Example 42, 2-(3-{6,6-difluoro-3-azabicyclo[3.1.0]hexane-3-carbonyl}-4H,5H,6H,7H-pyrazolo[1,5-a]pyrazine-5-carbonyl)-1H-indole] | < 1 | < 5 | > 10 | – |
| O=C(c1cc2ccccc2[nH]1)N1CCn2ncc(C(=O)N3CC4CC4C3)c2C1 (stereo not drawn) [Example 43, 2-(3-{3-azabicyclo[3.1.0]hexane-3-carbonyl}-4H,5H,6H,7H-pyrazolo[1,5-a]pyrazine-5-carbonyl)-1H-indole] | < 100 | < 5 | > 10 | – |
| CN(Cc1ccccn1)C(=O)c1cnn2c1CN(C(=O)c1cc3ccccc3[nH]1)CC2 [Example 44, 5-(1H-indole-2-carbonyl)-N-methyl-N-[(pyridin-2-yl)methyl]-4H,5H,6H,7H-pyrazolo[1,5-a]pyrazine-3-carboxamide] | < 1 | < 5 | > 10 | – |
| O=C(c1cc2ccccc2[nH]1)N1CCn2ncc(C3(O)CCC3)c2C1 [Example 45, 1-[5-(1H-indole-2-carbonyl)-4H,5H,6H,7H-pyrazolo[1,5-a]pyrazin-3-yl]cyclobutan-1-ol] | 1 to 10 | 5 to 10 | > 10 | – |
| CN(C(=O)c1cnn2c1CN(C(=O)c1cc3ccccc3[nH]1)CC2)C1(c2ccncc2)CC1 [Example 46, 5-(1H-indole-2-carbonyl)-N-methyl-N-[1-(pyridin-4-yl)cyclopropyl]-4H,5H,6H,7H-pyrazolo[1,5-a]pyrazine-3-carboxamide] | < 1 | < 5 | > 10 | – |
| CN(C(=O)c1cnn2c1CN(C(=O)c1cc3ccccc3[nH]1)CC2)C1(c2ncccn2)CC1 [Example 47, 5-(1H-indole-2-carbonyl)-N-methyl-N-[1-(pyrimidin-2-yl)cyclopropyl]-4H,5H,6H,7H-pyrazolo[1,5-a]pyrazine-3-carboxamide] | < 1 | < 5 | > 10 | – |
| O=C(c1cc2ccccc2[nH]1)N1CCn2ncc(C(=O)N3CCC4CC43)c2C1 (stereo not drawn) [Example 48, 2-(3-{2-azabicyclo[3.1.0]hexane-2-carbonyl}-4H,5H,6H,7H-pyrazolo[1,5-a]pyrazine-5-carbonyl)-1H-indole] | 1 to 10 | < 5 | > 10 | – |
| O=C(c1cc2ccccc2[nH]1)N1CCn2ncc(N3CC4(CC4)CC3=O)c2C1 [Example 49, 5-[5-(1H-indole-2-carbonyl)-4H,5H,6H,7H-pyrazolo[1,5-a]pyrazin-3-yl]-5-azaspiro[2.4]heptan-6-one] | < 1 | < 5 | > 10 | – |
| COCC1(NC(=O)c2cnn3c2CN(C(=O)c2cc4ccccc4[nH]2)CC3)CC1 [Example 50, 5-(1H-indole-2-carbonyl)-N-[1-(methoxymethyl)cyclopropyl]-4H,5H,6H,7H-pyrazolo[1,5-a]pyrazine-3-carboxamide] | < 1 | < 5 | > 10 | – |
| O=C(c1cc2ccccc2[nH]1)N1CCn2ncc(C3(O)CC(c4ccccc4)C3)c2C1 (stereo not drawn) [Example 51, 1-[5-(1H-indole-2-carbonyl)-4H,5H,6H,7H-pyrazolo[1,5-a]pyrazin-3-yl]-3-phenylcyclobutan-1-ol] | 1 to 10 | 5 to 10 | > 10 | – |
| CN(CCO)C(=O)c1cnn2c1CN(C(=O)c1cc3c(Cl)cccc3[nH]1)CC2 [Example 52, 5-(4-chloro-1H-indole-2-carbonyl)-N-(2-hydroxyethyl)-N-methyl-4H,5H,6H,7H-pyrazolo[1,5-a]pyrazine-3-carboxamide] | < 1 | < 5 | > 10 | – |
| CN(C(=O)c1cnn2c1CN(C(=O)c1cc3ccccc3[nH]1)CC2)C1(CNCC(F)F)CC1 [Example 53, N-(1-{[(2,2-difluoroethyl)amino]methyl}cyclopropyl)-5-(1H-indole-2-carbonyl)-N-methyl-4H,5H,6H,7H-pyrazolo[1,5-a]pyrazine-3-carboxamide] | < 1 | < 5 | > 10 | – |
| O=C(NCCOC(F)F)c1cnn2c1CN(C(=O)c1cc3ccccc3[nH]1)CC2 [Example 54, N-[2-(difluoromethoxy)ethyl]-5-(1H-indole-2-carbonyl)-4H,5H,6H,7H-pyrazolo[1,5-a]pyrazine-3-carboxamide] | 1 to 10 | < 5 | > 10 | – |
| CN(Cc1ccnn1C)C(=O)c1cnn2c1CN(C(=O)c1cc3ccccc3[nH]1)CC2 [Example 55, 5-(1H-indole-2-carbonyl)-N-methyl-N-[(1-methyl-1H-pyrazol-5-yl)methyl]-4H,5H,6H,7H-pyrazolo[1,5-a]pyrazine-3-carboxamide] | < 1 | < 5 | > 10 | – |
| O=C(c1cc2ccccc2[nH]1)N1CCn2ncc(C(=O)N3CCC(F)(F)C34CC4)c2C1 [Example 56, 2-(3-{7,7-difluoro-4-azaspiro[2.4]heptane-4-carbonyl}-4H,5H,6H,7H-pyrazolo[1,5-a]pyrazine-5-carbonyl)-1H-indole] | < 1 | < 5 | > 10 | – |
| CN(C(=O)c1cnn2c1CN(C(=O)c1cc3ccccc3[nH]1)CC2)C1(c2cocn2)CC1 [Example 57, 5-(1H-indole-2-carbonyl)-N-methyl-N-[1-(1,3-oxazol-4-yl)cyclopropyl]-4H,5H,6H,7H-pyrazolo[1,5-a]pyrazine-3-carboxamide] | < 1 | < 5 | > 10 | – |
| O=C(c1cc2ccccc2[nH]1)N1CCn2ncc(C(=O)N3CCC(O)CC34CC4)c2C1 (stereo not drawn) [Example 58, 4-[5-(1H-indole-2-carbonyl)-4H,5H,6H,7H-pyrazolo[1,5-a]pyrazine-3-carbonyl]-4-azaspiro[2.5]octan-7-ol] | < 1 | < 5 | > 10 | – |
| O=C(c1cc2ccccc2[nH]1)N1CCn2ncc(C(=O)N3CCC(OC(F)F)CC34CC4)c2C1 (stereo not drawn) [Example 59, 2-{3-[7-(difluoromethoxy)-4-azaspiro[2.5]octane-4-carbonyl]-4H,5H,6H,7H-pyrazolo[1,5-a]pyrazine-5-carbonyl}-1H-indole] | < 1 | < 5 | > 10 | – |
| O=C(c1cc2ccccc2[nH]1)N1CCn2ncc(C(=O)N(C3CC3)C3CC3)c2C1 [Example 60, N,N-dicyclopropyl-5-(1H-indole-2-carbonyl)-4H,5H,6H,7H-pyrazolo[1,5-a]pyrazine-3-carboxamide] | < 1 | < 5 | > 10 | – |
| O=C(NC1(c2ccccn2)CC1)c1cnn2c1CN(C(=O)c1cc3ccccc3[nH]1)CC2 [Example 61, 5-(1H-indole-2-carbonyl)-N-[1-(pyridin-2-yl)cyclopropyl]-4H,5H,6H,7H-pyrazolo[1,5-a]pyrazine-3-carboxamide] | < 1 | < 5 | > 10 | – |
| CN(CCOC(F)F)C(=O)c1cnn2c1CN(C(=O)c1cc3ccccc3[nH]1)CC2 [Example 62, N-[2-(difluoromethoxy)ethyl]-5-(1H-indole-2-carbonyl)-N-methyl-4H,5H,6H,7H-pyrazolo[1,5-a]pyrazine-3-carboxamide] | – | < 5 | > 10 | > 10 |
